Values belong to the molecule of their own block, whether it stands above or below them.
How the values were obtained:
[1] = target: T1, Protein cereblon/Estrogen receptor (Homo sapiens, UniProt P03372+Q96SW2); test: Protac activity at human ERalpha in human MCF7 cells assessed as protein degradation incubated for 12 hrs by ICW blot assay; type: cell-based
Target sequence in this assay (P03372 whole entry): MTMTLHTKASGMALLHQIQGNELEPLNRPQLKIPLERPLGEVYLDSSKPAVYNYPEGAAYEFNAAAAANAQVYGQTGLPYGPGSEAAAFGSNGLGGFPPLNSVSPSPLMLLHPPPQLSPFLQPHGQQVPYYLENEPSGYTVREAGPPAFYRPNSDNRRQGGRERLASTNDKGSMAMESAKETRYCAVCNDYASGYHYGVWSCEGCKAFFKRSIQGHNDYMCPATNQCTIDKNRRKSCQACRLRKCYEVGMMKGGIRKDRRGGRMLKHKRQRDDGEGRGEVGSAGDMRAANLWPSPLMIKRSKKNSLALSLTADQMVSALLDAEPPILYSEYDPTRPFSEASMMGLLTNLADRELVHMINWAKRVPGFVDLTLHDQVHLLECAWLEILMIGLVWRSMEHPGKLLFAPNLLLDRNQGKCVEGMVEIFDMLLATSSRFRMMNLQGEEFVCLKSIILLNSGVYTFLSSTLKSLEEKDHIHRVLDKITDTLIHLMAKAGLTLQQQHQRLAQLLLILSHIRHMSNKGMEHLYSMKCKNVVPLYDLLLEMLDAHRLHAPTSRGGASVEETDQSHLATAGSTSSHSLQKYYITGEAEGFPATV
Target sequence in this assay (Q96SW2 whole entry): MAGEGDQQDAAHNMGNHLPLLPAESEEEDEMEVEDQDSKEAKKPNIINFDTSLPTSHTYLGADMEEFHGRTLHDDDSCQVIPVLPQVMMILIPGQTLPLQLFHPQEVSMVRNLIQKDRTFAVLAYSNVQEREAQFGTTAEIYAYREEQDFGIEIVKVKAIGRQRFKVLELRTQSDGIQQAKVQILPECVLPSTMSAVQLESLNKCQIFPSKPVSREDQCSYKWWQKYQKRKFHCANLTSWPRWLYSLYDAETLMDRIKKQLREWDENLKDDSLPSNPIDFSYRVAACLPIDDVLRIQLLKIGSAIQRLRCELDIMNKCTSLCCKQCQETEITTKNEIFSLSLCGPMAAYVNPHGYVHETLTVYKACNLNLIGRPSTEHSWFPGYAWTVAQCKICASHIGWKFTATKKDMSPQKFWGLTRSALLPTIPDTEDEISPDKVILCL

[2] = target: T1, Protein cereblon/Estrogen receptor; test: Protac activity at human ERalpha in human MCF7 cells assessed as induction of ERalpha degradation by measuring maximum efficacy at 1 uM incubated for 12 hrs by ICW blot assay relative to control; type: cell-based
Target sequence in this assay (P03372 whole entry, looked up): as the sequence (P03372 whole entry) above
Target sequence in this assay (Q96SW2 whole entry, looked up): as the sequence (Q96SW2 whole entry) above

[3] = Volume of distribution at steady state in Sprague-Dawley rat at 1 mg/kg, iv and measured upto 24 hrs by LC-MS/MS analysis; conditions: in vivo
[4] = Clearance in Sprague-Dawley rat at 1 mg/kg, iv and measured upto 24 hrs by LC-MS/MS analysis; conditions: in vivo
[5] = Half life in Sprague-Dawley rat at 3 mg/kg, po and measured upto 24 hrs by LC-MS/MS analysis; conditions: in vivo
[6] = AUC in Sprague-Dawley rat at 3 mg/kg, po and measured upto 24 hrs by LC-MS/MS analysis; type: ADME, organism-based; design: dose 3 mg/kg, time < 24 hrs, route po; conditions: Sprague-Dawley, in vivo
in vivo [7] = conditions: Sprague-Dawley, rat, po, 3 mg/kg
in vivo [8] = conditions: Sprague-Dawley, rat, po, 3 mg/kg; remark: listed apart in the source
[9] = Volume of distribution at steady state in ICR mouse at 1 mg/kg, iv and measured upto 24 hrs by LC-MS/MS analysis; type: ADME, organism-based; conditions: in vivo, read-out: Vdss
[10] = Clearance in ICR mouse at 1 mg/kg, iv and measured upto 24 hrs by LC-MS/MS analysis; type: ADME, organism-based; conditions: in vivo
[11] = Half life in ICR mouse at 3 mg/kg, po and measured upto 24 hrs by LC-MS/MS analysis; type: ADME, organism-based; conditions: in vivo
[12] = Cmax in ICR mouse at 3 mg/kg, po and measured upto 24 hrs by LC-MS/MS analysis; type: ADME, organism-based; design: dose 3 mg/kg, time < 24 hrs, route po; conditions: in vivo
[13] = AUC in ICR mouse at 3 mg/kg, po and measured upto 24 hrs by LC-MS/MS analysis; type: ADME, organism-based; design: dose 3 mg/kg, time < 24 hrs, route po; conditions: in vivo
[14] = Oral bioavailability in ICR mouse at 3 mg/kg and measured upto 24 hrs by LC-MS/MS analysis; type: ADME, organism-based; conditions: in vivo

Compound: O=C1CCC(N2C(=O)c3cc4c(cc3C2=O)CN(CCCC2CCN(c3ccc([C@@H]5c6ccc(O)cc6CC[C@@H]5c5ccccc5)cc3)CC2)C4)C(=O)N1 (stereo partly specified)
DC50 [1]: 171 nM
Emax [2]: 79%

Compound: O=C1CCC(N2C(=O)c3cc4c(cc3C2=O)CN(C2CCN(c3ccc([C@@H]5c6ccc(O)cc6CC[C@@H]5c5ccccc5)cc3)CC2)C4)C(=O)N1 (stereo partly specified)
DC50 [1]: > 1000 nM
Emax [2]: 32%

Compound: O=C1CCC(N2C(=O)c3cc4c(cc3C2=O)CN(CC2CCN(C(=O)C3CCN(c5ccc([C@@H]6c7ccc(O)cc7CC[C@@H]6c6ccccc6)cc5)CC3)CC2)C4)C(=O)N1 (stereo partly specified)
DC50 [1]: 13 nM
Emax [2]: 76%

Compound: O=C1CCC(N2C(=O)c3cc4c(cc3C2=O)CN(CC(=O)N2CCCC3(CCN(c5ccc([C@@H]6c7ccc(O)cc7CC[C@@H]6c6ccccc6)cc5)CC3)C2)C4)C(=O)N1 (stereo partly specified)
DC50 [1]: 393 nM
Emax [2]: 58%

Compound: O=C1CCC(N2C(=O)c3cc4c(cc3C2=O)CN(C2CCN(CC3CN(c5ccc([C@@H]6c7ccc(O)cc7CC[C@@H]6c6ccccc6)cc5)C3)CC2)C4)C(=O)N1 (stereo partly specified)
DC50 [1]: 295 nM
Emax [2]: 57%

Compound: O=C1CCC(N2C(=O)c3cc4c(cc3C2=O)CN(CCCCCCC2CCN(c3ccc([C@@H]5c6ccc(O)cc6CC[C@@H]5c5ccccc5)cc3)CC2)C4)C(=O)N1 (stereo partly specified)
DC50 [1]: 129 nM
Emax [2]: 101%

Compound: O=C1CCC(N2C(=O)c3cc4c(cc3C2=O)CN(C(=O)C2CCN(CC3CN(c5ccc([C@@H]6c7ccc(O)cc7CC[C@@H]6c6ccccc6)cc5)C3)CC2)C4)C(=O)N1 (stereo partly specified)
DC50 [1]: > 1000 nM
Emax [2]: 40%

Compound: O=C1CCC(N2C(=O)c3cc4c(cc3C2=O)CN(CCC2CCN(c3ccc([C@@H]5c6ccc(O)cc6CC[C@@H]5c5ccccc5)cc3)CC2)C4)C(=O)N1 (stereo partly specified)
DC50 [1]: 1000 nM
Emax [2]: 50%

Compound: O=C1CCC(N2C(=O)c3cc4c(cc3C2=O)CN(CC2CCN(C(=O)C3CN(c5ccc([C@@H]6c7ccc(O)cc7CC[C@@H]6c6ccccc6)cc5)C3)CC2)C4)C(=O)N1 (stereo partly specified)
DC50 [1]: 32 nM
Emax [2]: 87%

Compound: O=C1CCC(N2C(=O)c3cc4c(cc3C2=O)CN(CC2CN(CC3CCN(c5ccc([C@@H]6c7ccc(O)cc7CC[C@@H]6c6ccccc6)cc5)CC3)C2)C4)C(=O)N1 (stereo partly specified)
DC50 [1]: 21 nM
Emax [2]: 59%

Compound: O=C1CCC(N2C(=O)c3cc4c(cc3C2=O)CN(C2CN(CC3CCN(c5ccc([C@@H]6c7ccc(O)cc7CC[C@@H]6c6ccccc6)cc5)CC3)C2)C4)C(=O)N1 (stereo partly specified)
DC50 [1]: 989 nM
Emax [2]: 50%

Compound: O=C1CCC(N2C(=O)c3cc4c(cc3C2=O)CN(C(=O)CN2CCC3(CC2)CCN(c2ccc([C@@H]5c6ccc(O)cc6CC[C@@H]5c5ccccc5)cc2)CC3)C4)C(=O)N1 (stereo partly specified)
DC50 [1]: > 1000 nM
Emax [2]: 16%

Compound: O=C1CCC(N2C(=O)c3cc4c(cc3C2=O)CN(C(=O)C2CCN(CC3CCN(c5ccc([C@@H]6c7ccc(O)cc7CC[C@@H]6c6ccccc6)cc5)CC3)CC2)C4)C(=O)N1 (stereo partly specified)
DC50 [1]: 9.7 nM
Emax [2]: 63%

Compound: O=C1CCC(N2C(=O)c3cc4c(cc3C2=O)CN(CC2CCN(CC3CN(c5ccc([C@@H]6c7ccc(O)cc7CC[C@@H]6c6ccccc6)cc5)C3)CC2)C4)C(=O)N1 (stereo partly specified)
DC50 [1]: 19 nM
Emax [2]: 64%

Compound: O=C1CCC(N2C(=O)c3cc4c(cc3C2=O)CN(CC(=O)N2CC3(C2)CN(c2ccc([C@@H]5c6ccc(O)cc6CC[C@@H]5c5ccccc5)cc2)C3)C4)C(=O)N1 (stereo partly specified)
DC50 [1]: 11 nM
Emax [2]: 65%

Compound: O=C1CCC(N2C(=O)c3cc4c(cc3C2=O)CN(CCCCCC2CCN(c3ccc([C@@H]5c6ccc(O)cc6CC[C@@H]5c5ccccc5)cc3)CC2)C4)C(=O)N1 (stereo partly specified)
DC50 [1]: 31 nM
Emax [2]: 106%

Compound: O=C1CCC(N2C(=O)c3cc4c(cc3C2=O)CN(CCCCC2CCN(c3ccc([C@@H]5c6ccc(O)cc6CC[C@@H]5c5ccccc5)cc3)CC2)C4)C(=O)N1 (stereo partly specified)
DC50 [1]: 236 nM
Emax [2]: 67%

Compound: C[C@@H]1Cc2c(ccc3[nH]ncc23)[C@@H](c2ccc(N3CCC4(CCN(C(=O)CN5Cc6cc7c(cc6C5)C(=O)N(C5CCC(=O)NC5=O)C7=O)CC4)CC3)cn2)N1CC(F)F (stereo partly specified)
DC50 [1]: 14 nM
Emax [2]: 112%

Compound: O=C1CCC(N2C(=O)c3cc4c(cc3C2=O)CN(CC(=O)N2CCC3(C2)CN(c2ccc([C@@H]5c6ccc(O)cc6CC[C@@H]5c5ccccc5)cc2)C3)C4)C(=O)N1 (stereo partly specified)
DC50 [1]: > 1000 nM
Emax [2]: 23%

Compound: O=C1CCC(N2C(=O)c3cc4c(cc3C2=O)CN(CC(=O)N2CCC3(CC2)CCN(c2ccc([C@H]5c6ccc(O)cc6CC[C@H]5c5ccccc5)cc2)C3)C4)C(=O)N1 (single isomer, unassigned)
DC50 [1]: 18 nM
Emax [2]: 58%

Compound: O=C1CCC(N2C(=O)c3cc4c(cc3C2=O)CN(CC2CCN(c3ccc([C@@H]5c6ccc(O)cc6CC[C@@H]5c5ccccc5)cc3)CC2)C4)C(=O)N1 (stereo partly specified)
DC50 [1]: 415 nM
Emax [2]: 65%

Stronger by DC50 [1], values ahead:

DC50 [1]: 6 nM
Emax [2]: 84%
Compound: O=C1CCC(N2C(=O)c3cc4c(cc3C2=O)CN(CC2CN(C(=O)C3CCN(c5ccc([C@@H]6c7ccc(O)cc7CC[C@@H]6c6ccccc6)cc5)CC3)C2)C4)C(=O)N1 (stereo partly specified)

DC50 [1]: 4.6 nM
Emax [2]: 75%
Compound: O=C1CCC(N2C(=O)c3cc4c(cc3C2=O)CN(CC(=O)N2CCC3(CCN(c5ccc([C@@H]6c7ccc(O)cc7CC[C@@H]6c6ccccc6)cc5)CC3)C2)C4)C(=O)N1 (stereo partly specified)

DC50 [1]: 4 nM
Emax [2]: 63%
Compound: O=C1CCC(N2C(=O)c3cc4c(cc3C2=O)CN(CC(=O)N2CC3(CCN(c5ccc([C@@H]6c7ccc(O)cc7CC[C@@H]6c6ccccc6)cc5)C3)C2)C4)C(=O)N1 (stereo partly specified)

Vd at 24 h [3]: 3.7 L/kg
clearance at 24 h [4]: 27 mL/min/kg
half-life at 24 h [5]: 2.3 h
AUC at 24 h [6]: 243 ng·h/mL
DC50 [1]: 3.8 nM
Emax [2]: 107%
Cmax at 24 h (in vivo [7]): 51.8 ng/mL
bioavailability at 24 h (in vivo [8]): 14%
Compound: C[C@@H]1Cc2c(ccc3[nH]ncc23)[C@@H](c2ccc(N3CCC4(CCN(C(=O)CN5Cc6cc7c(cc6C5)C(=O)N(C5CCC(=O)NC5=O)C7=O)CC4)CC3)cn2)N1CC(F)(F)F (stereo partly specified)

DC50 [1]: 2.8 nM
Emax [2]: 71%
Compound: O=C1CCC(N2C(=O)c3cc4c(cc3C2=O)CN(CC(=O)N2CC3(CCN(c5ccc([C@@H]6c7ccc(O)cc7CC[C@@H]6c6ccccc6)cc5)CC3)C2)C4)C(=O)N1 (stereo partly specified)

Vd at 24 h [3]: 8.8 L/kg
clearance at 24 h [4]: 25.7 mL/min/kg
half-life at 24 h [5]: 4 h
AUC at 24 h [6]: 552 ng·h/mL
DC50 [1]: 2.3 nM
Emax [2]: 84%
Vd [9]: 16.2 L/kg
clearance [10]: 14.2 mL/min/kg
half-life [11]: 9.8 h
Cmax [12]: 93.3 ng/mL
AUC at 24 h [13]: 1480 ng·h/mL
bioavailability [14]: 58%
Cmax at 24 h (in vivo [7]): 54.6 ng/mL
bioavailability at 24 h (in vivo [8]): 30%
Compound: O=C1CCC(N2C(=O)c3cc4c(cc3C2=O)CN(C2CCN(CC3CCN(c5ccc([C@@H]6c7ccc(O)cc7CC[C@@H]6c6ccccc6)cc5)CC3)CC2)C4)C(=O)N1 (stereo partly specified)

DC50 [1]: 2 nM
Emax [2]: 88%
Compound: C[C@@H]1Cc2c(ccc3[nH]ncc23)[C@@H](c2c(F)cc(N3CCC4(CCN(C(=O)CN5Cc6cc7c(cc6C5)C(=O)N(C5CCC(=O)NC5=O)C7=O)CC4)CC3)cc2F)N1CC(F)(F)F (stereo partly specified)

DC50 [1]: 1.8 nM
Emax [2]: 68%
Compound: O=C1CCC(N2C(=O)c3cc4c(cc3C2=O)CN(CC(=O)N2CCC3(CC2)CN(c2ccc([C@@H]5c6ccc(O)cc6CC[C@@H]5c5ccccc5)cc2)C3)C4)C(=O)N1 (stereo partly specified)

Vd at 24 h [3]: 2 L/kg
clearance at 24 h [4]: 23.1 mL/min/kg
half-life at 24 h [5]: 2.7 h
AUC at 24 h [6]: 206 ng·h/mL
DC50 [1]: 1.6 nM
Emax [2]: 95%
Cmax at 24 h (in vivo [7]): 40.6 ng/mL
bioavailability at 24 h (in vivo [8]): 10%
Compound: O=C1CCC(N2C(=O)c3cc4c(cc3C2=O)CN(C2CCN(C(=O)C3CCN(c5ccc([C@@H]6c7ccc(O)cc7CC[C@@H]6c6ccccc6)cc5)CC3)CC2)C4)C(=O)N1 (stereo partly specified)

DC50 [1]: 1.4 nM
Emax [2]: 82%
Compound: COc1cc(N2CCC3(CCN(C(=O)CN4Cc5cc6c(cc5C4)C(=O)N(C4CCC(=O)NC4=O)C6=O)CC3)CC2)ccc1[C@@H]1c2ccc3[nH]ncc3c2C[C@@H](C)N1CC(F)F (stereo partly specified)

From ChEMBL document CHEMBL5321293, “Discovery of ERD-3111 as a Potent and Orally Efficacious Estrogen Receptor PROTAC Degrader with Strong Antitumor Activity” (J Med Chem, 2023)
